Molecules are shown by their SMILES. Calls of active or inactive are those of the source.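 How the source made its calls: active means lipid-stain IC50 at or below a set limit, with nuclear-stain toxicity IC50 at least five times higher; inactive means the rest.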

For one assay, the system named is DAPI. Kind of assay: triacylglycerol accumulation inhibitor potency, dose response, cell-based, panel, Nile Red and DAPI fluorescence, H9c2 (AID 651630).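 Further: cells exposed to compound overnight before fixation and staining.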 Conditions: H9c2 cells, DAPI nuclear fluorescence (cytotoxicity counter-readout), oleic acid.
For a further assay, the system named is TAG. The description is as above. The conditions noted are these: H9c2 cells, Nile Red TAG fluorescence, oleic acid.

In the case of `O=C1NC(Cc2ccc(O)cc2)c2nc3ccc(Cl)cc3c(=O)n2-c2cc3ccccc3cc21` (stereo unspecified), the IC50 cytotoxicity (DAPI nuclear signal decrease) in the assay with DAPI (mean of runs) was > 25 µM (inactive); in the assay with DAPI (run 1), greater than 25 µM; in the assay with DAPI (run 2), greater than 25 µM. The IC50 with TAG (mean of runs) is > 25 µM (inactive); with TAG (run 1), greater than 25 µM; in the assay with TAG (run 2), greater than 25 µM.

Consider `CCOc1ccc(CCNC(=O)CCc2nc(-c3ccc(C)cc3)no2)cc1OCC`, for which the IC50 cytotoxicity (DAPI nuclear signal decrease) with DAPI (mean of runs) was > 25 µM (inactive); in the assay on DAPI (run 1), greater than 25 µM; in the assay on DAPI (run 2) it was greater than 25 µM. Moreover, the IC50 in the assay with TAG (mean of runs) was > 25 µM (inactive); in the assay with TAG (run 1), greater than 25 µM; in the assay with TAG (run 2), greater than 25 µM.

Consider `O=C(NCCc1c[nH]c2ccccc12)C1CCC(Cn2c(=S)[nH]c3ccccc3c2=O)CC1` (stereo unspecified), for which the IC50 cytotoxicity (DAPI nuclear signal decrease) is > 25 µM (inactive) in the assay on DAPI (mean of runs), greater than 25 µM in the assay on DAPI (run 1) and greater than 25 µM in the assay with DAPI (run 2). Further, the IC50 is greater than 25 µM with TAG (run 1) and 22.2 µM with TAG (run 2).

As to `O=C(Cn1cc[n+](CC(=O)c2ccc(Cl)cc2Cl)c1)c1ccc(Cl)cc1Cl`, the IC50 cytotoxicity (DAPI nuclear signal decrease) is > 25 µM (inactive) in the assay on DAPI (mean of runs), greater than 25 µM in the assay on DAPI (run 1) and greater than 25 µM in the assay on DAPI (run 2). For the same molecule, the values for the IC50 with TAG (run 1) and with TAG (run 2) were greater than 25 µM and 20.9 µM, respectively.

Take `Cc1[nH]c2ccccc2c1/C=N/Nc1nc(Nc2ccc(F)cc2)nc(N2CCOCC2)n1`: the results for the IC50 cytotoxicity (DAPI nuclear signal decrease) with DAPI (mean of runs), in the assay on DAPI (run 1) and in the assay on DAPI (run 2) were > 25 µM (inactive), greater than 25 µM and greater than 25 µM, respectively. Besides, the IC50 was 20.6 µM (inactive) in the assay with TAG (mean of runs), 21.6 µM with TAG (run 1) and 19.7 µM in the assay with TAG (run 2).

Consider `COc1ccc(OC)c(C2CC(c3ccccc3)=NN2C(=S)Nc2ccccc2)c1` (stereo unspecified), for which the IC50 cytotoxicity (DAPI nuclear signal decrease) with DAPI (mean of runs) was > 25 µM (inactive); in the assay with DAPI (run 1), greater than 25 µM; with DAPI (run 2) it was greater than 25 µM. Also, the results for the IC50 in the assay with TAG (mean of runs), with TAG (run 1) and in the assay on TAG (run 2) were > 25 µM (inactive), greater than 25 µM and greater than 25 µM, respectively.

As for `COc1cc(-c2cnc3c(NC=O)cc(-c4cccnc4)cn23)cc(OC)c1OC`, the IC50 cytotoxicity (DAPI nuclear signal decrease) is > 25 µM (inactive) in the assay on DAPI (mean of runs), greater than 25 µM with DAPI (run 1) and greater than 25 µM in the assay on DAPI (run 2). Also, the figures for the IC50 with TAG (mean of runs), with TAG (run 1) and with TAG (run 2) were 15.8 µM (inactive), 14.5 µM and 17 µM, respectively.

`COc1cccc(Cn2c3ccc(NC(=O)CCc4ccc(F)cc4)cc3c(=O)n2C)c1`: the IC50 cytotoxicity (DAPI nuclear signal decrease) in the assay on DAPI (mean of runs) was > 25 µM (inactive); in the assay on DAPI (run 1), greater than 25 µM; in the assay with DAPI (run 2), greater than 25 µM. Also, the IC50 in the assay with TAG (run 1) is 20.9 µM; with TAG (run 2), greater than 25 µM.

For the molecule `Cc1ccc(CC2(OCCN(C)C)CCC(C(C)(C)C)CC2)cc1` (stereo unspecified), the results for the IC50 cytotoxicity (DAPI nuclear signal decrease) with DAPI (mean of runs), in the assay on DAPI (run 1) and with DAPI (run 2) were 23.5 µM (inactive), 23.2 µM and 23.8 µM, respectively. Further, the IC50 in the assay on TAG (mean of runs) is > 25 µM (inactive); in the assay with TAG (run 1) it was greater than 25 µM; in the assay on TAG (run 2), greater than 25 µM.

Turning to `CO/N=C\CC(=O)Nc1ccc(Oc2ccccc2)cc1`, the IC50 cytotoxicity (DAPI nuclear signal decrease) in the assay on DAPI (mean of runs) is > 25 µM (inactive); with DAPI (run 1), greater than 25 µM; in the assay with DAPI (run 2) it was greater than 25 µM. For the same molecule, the IC50 with TAG (mean of runs) is 7.97 µM; in the assay with TAG (run 1) it was 9.14 µM; in the assay with TAG (run 2), 6.8 µM.

Turning to `COc1cc2ccccc2cc1C(=O)N/N=C/c1cccs1`, the IC50 cytotoxicity (DAPI nuclear signal decrease) is > 25 µM (inactive) in the assay on DAPI (mean of runs), greater than 25 µM in the assay with DAPI (run 1) and greater than 25 µM in the assay on DAPI (run 2). In addition, the IC50 is > 25 µM (inactive) with TAG (mean of runs), greater than 25 µM in the assay with TAG (run 1) and greater than 25 µM in the assay with TAG (run 2).

For the molecule `Cc1ccc2[nH]c(-c3ccccc3)cc(=O)c2c1`, the IC50 cytotoxicity (DAPI nuclear signal decrease) is > 25 µM (inactive) in the assay on DAPI (mean of runs), greater than 25 µM in the assay on DAPI (run 1) and greater than 25 µM in the assay with DAPI (run 2). Besides, the IC50 is > 25 µM (inactive) in the assay with TAG (mean of runs), greater than 25 µM in the assay on TAG (run 1) and greater than 25 µM in the assay with TAG (run 2).

Take `O=C(c1cc(-c2ccncc2)nc2c(Cl)cccc12)N1CCN(c2ccccc2F)CC1`: the values for the IC50 cytotoxicity (DAPI nuclear signal decrease) with DAPI (mean of runs), in the assay on DAPI (run 1) and with DAPI (run 2) were > 25 µM (inactive), greater than 25 µM and greater than 25 µM, respectively. For the same molecule, the IC50 with TAG (mean of runs) is 5.67 µM; with TAG (run 1), 6.89 µM; with TAG (run 2), 4.44 µM.

Turning to `O=C(CSc1nc2ccc(Nc3nc(N4CCOCC4)nc(N4CCOCC4)n3)cc2s1)NCc1ccco1`, the IC50 cytotoxicity (DAPI nuclear signal decrease) with DAPI (mean of runs) was > 25 µM (inactive); with DAPI (run 1) it was greater than 25 µM; with DAPI (run 2), greater than 25 µM. The IC50 was 7.1 µM with TAG (mean of runs), 7.74 µM with TAG (run 1) and 6.45 µM in the assay with TAG (run 2).

For the molecule `CC(C)(Oc1ccc(Cl)cc1)C(=O)Nc1ccc2oc(-c3ccncc3)nc2c1`, the IC50 cytotoxicity (DAPI nuclear signal decrease) in the assay on DAPI (mean of runs) was > 25 µM (inactive); in the assay on DAPI (run 1), greater than 25 µM; with DAPI (run 2), greater than 25 µM. In addition, the IC50 in the assay with TAG (mean of runs) was > 25 µM (inactive); in the assay on TAG (run 1), greater than 25 µM; in the assay on TAG (run 2) it was greater than 25 µM.

Consider `CCc1cc2c3c(c1)C1(C(=O)N3C(C)(C)C=C2C)C(C#N)=C(N)Oc2[nH]c(=O)[nH]c(=O)c21` (stereo unspecified), for which the values for the IC50 cytotoxicity (DAPI nuclear signal decrease) in the assay on DAPI (mean of runs), in the assay on DAPI (run 1) and in the assay with DAPI (run 2) were > 25 µM (inactive), greater than 25 µM and greater than 25 µM, respectively. For the same molecule, the IC50 with TAG (mean of runs) is > 25 µM (inactive); with TAG (run 1), greater than 25 µM; with TAG (run 2), greater than 25 µM.

Regarding `O=C1C(NS(=O)(=O)c2cccs2)=C(N2CCN(c3cccc(C(F)(F)F)c3)CC2)C(=O)c2ccccc21`, the results for the IC50 cytotoxicity (DAPI nuclear signal decrease) in the assay on DAPI (mean of runs), with DAPI (run 1) and in the assay with DAPI (run 2) were > 25 µM (inactive), greater than 25 µM and greater than 25 µM, respectively. The IC50 is 5.88 µM in the assay on TAG (mean of runs), 7.01 µM with TAG (run 1) and 4.75 µM in the assay on TAG (run 2).

For `COc1ccc(-c2cnc3c(NC=O)cc(-c4cccc(NS(C)(=O)=O)c4)cn23)cc1OC`, the IC50 cytotoxicity (DAPI nuclear signal decrease) in the assay with DAPI (mean of runs) was 21.6 µM (inactive); with DAPI (run 1) it was 20.1 µM; with DAPI (run 2) it was 23 µM. In addition, the IC50 with TAG (mean of runs) is 13.1 µM; in the assay with TAG (run 1), 12.8 µM; in the assay on TAG (run 2), 13.3 µM.

As for `COc1ccc(CNC(=O)Nc2nc(C(N)Cc3ccc(Cl)cc3)cs2)cc1` (stereo unspecified), the IC50 cytotoxicity (DAPI nuclear signal decrease) in the assay with DAPI (mean of runs) is 21.7 µM (inactive); with DAPI (run 1), 19.5 µM; with DAPI (run 2) it was 23.9 µM. The values for the IC50 with TAG (mean of runs), in the assay on TAG (run 1) and with TAG (run 2) were > 25 µM (inactive), greater than 25 µM and greater than 25 µM, respectively.

Turning to `O=C(CCC1CCCCC1)NCCN1C2=NC[C@@H](Cc3ccccc3)N2C[C@H]1Cc1ccc(O)cc1`, the IC50 cytotoxicity (DAPI nuclear signal decrease) in the assay on DAPI (mean of runs) was > 25 µM (inactive); in the assay on DAPI (run 1), greater than 25 µM; in the assay with DAPI (run 2), greater than 25 µM. For the same molecule, the IC50 is > 25 µM (inactive) in the assay on TAG (mean of runs), greater than 25 µM with TAG (run 1) and greater than 25 µM with TAG (run 2).

In the case of `COC(=O)[C@@]1(Cc2ccc(F)cc2)[C@H]2c3cc(C(=O)N4CCCC4)n(CCCNc4ncc(C(F)(F)F)cc4Cl)c3C[C@H]2CN1C(=O)c1ccccc1`, the IC50 cytotoxicity (DAPI nuclear signal decrease) with DAPI (run 1) and in the assay on DAPI (run 2) was greater than 25 µM each time. The IC50 in the assay with TAG (mean of runs) was 2.58 µM; with TAG (run 1), 2.76 µM; in the assay with TAG (run 2) it was 2.41 µM.

For the molecule `NC(N)=Nc1ccc(C=C2C=Cc3ccccc32)cc1`, the IC50 cytotoxicity (DAPI nuclear signal decrease) was 22.8 µM (inactive) with DAPI (mean of runs), 21.2 µM with DAPI (run 1) and 24.5 µM in the assay with DAPI (run 2). For the same molecule, the IC50 with TAG (mean of runs) is 11.8 µM; in the assay on TAG (run 1), 12.6 µM; in the assay on TAG (run 2), 11.1 µM.

With `CC(=O)c1cccc(-c2ccc(CN3C(CC(C)C)C(=O)N(Cc4cn(CC5CCCCC5)nn4)CCS3(=O)=O)cc2)c1` (stereo unspecified), the IC50 cytotoxicity (DAPI nuclear signal decrease) in the assay with DAPI (mean of runs) is > 25 µM (inactive); with DAPI (run 1), greater than 25 µM; in the assay with DAPI (run 2), greater than 25 µM. Besides, the IC50 in the assay with TAG (run 1) is greater than 25 µM; in the assay on TAG (run 2) it was 18.1 µM.

On to `O=C(C[C@H]1C[C@H](C(=O)N2CCOCC2)[C@@]2(CCC3CCCC3)c3[nH]c4ccc(Cl)cc4c3CCN2C1=O)NCC12CC3CC(CC(C3)C1)C2`, for which the IC50 cytotoxicity (DAPI nuclear signal decrease) with DAPI (mean of runs) is > 25 µM (inactive); in the assay on DAPI (run 1), greater than 25 µM; in the assay on DAPI (run 2), greater than 25 µM. Further, the values for the IC50 with TAG (mean of runs), with TAG (run 1) and with TAG (run 2) were > 25 µM (inactive), greater than 25 µM and greater than 25 µM, respectively.

Turning to `O=C(Nc1ccc(/C=C/c2nc3ccccc3o2)cc1)c1c(F)cccc1F`, the IC50 cytotoxicity (DAPI nuclear signal decrease) in the assay on DAPI (mean of runs) was > 25 µM (inactive); in the assay on DAPI (run 1), greater than 25 µM; with DAPI (run 2), greater than 25 µM. Moreover, the IC50 in the assay on TAG (mean of runs) was 10.5 µM; in the assay with TAG (run 1) it was 13.2 µM; in the assay on TAG (run 2), 7.82 µM.

Take `Cc1cc(NC(=O)CSc2nc(-c3cccs3)nc3ccccc23)no1`: the figures for the IC50 cytotoxicity (DAPI nuclear signal decrease) in the assay on DAPI (mean of runs), in the assay with DAPI (run 1) and in the assay on DAPI (run 2) were > 25 µM (inactive), greater than 25 µM and greater than 25 µM, respectively. Moreover, the IC50 was 17.5 µM (inactive) in the assay with TAG (mean of runs), 14.4 µM in the assay with TAG (run 1) and 20.6 µM in the assay with TAG (run 2).

The record behind these values is PubChem BioAssay AID651630 (Sanford-Burnham Center for Chemical Genomics, 2012).
